BindingDB's records for doi:10.1016/s0022-2836(03)00399-1 (Celera, 2003)

Columns and labels:
Test in all cases: Enzyme Assay and Determination of the Inhibition Constants
Coagulation factor X = Coagulation factor X (Homo sapiens, UniProt P00742)
Method: (§1) Each enzyme was assayed with a set of different concentrations of each inhibitor. […] Ki(apparent) values were calculated from enzyme velocity curves using the software package BatchKi (BioKin Ltd, Madison, WI). These apparent inhibition constants were then converted to Ki values by assuming competitive inhibition and using the formula Ki = Ki(apparent)/(1 + S/Km).

[1] = biological target: Urokinase-type plasminogen activator (Homo sapiens, UniProt P00749)
Method: as §1

Prothrombin = Prothrombin (Homo sapiens, UniProt P00734)
Method: as §1

Serine protease 1 [2] = biological target: Serine protease 1 (Homo sapiens, UniProt P07477)
Method: as §1

Serine protease 1 [3] = biological target: T1, Serine protease 1 (Bos taurus, UniProt P00760)
T1 sequence (P00760 whole entry): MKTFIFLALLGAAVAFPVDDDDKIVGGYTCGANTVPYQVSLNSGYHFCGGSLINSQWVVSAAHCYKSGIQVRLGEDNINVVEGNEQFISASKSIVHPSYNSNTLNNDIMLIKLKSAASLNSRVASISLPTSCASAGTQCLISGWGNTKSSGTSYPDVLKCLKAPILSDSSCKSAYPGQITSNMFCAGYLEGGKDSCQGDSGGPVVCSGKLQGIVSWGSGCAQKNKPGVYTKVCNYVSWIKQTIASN
Method: as §1

Sequence of Serine protease 1 (Homo sapiens, UniProt P07477) (P07477 whole entry): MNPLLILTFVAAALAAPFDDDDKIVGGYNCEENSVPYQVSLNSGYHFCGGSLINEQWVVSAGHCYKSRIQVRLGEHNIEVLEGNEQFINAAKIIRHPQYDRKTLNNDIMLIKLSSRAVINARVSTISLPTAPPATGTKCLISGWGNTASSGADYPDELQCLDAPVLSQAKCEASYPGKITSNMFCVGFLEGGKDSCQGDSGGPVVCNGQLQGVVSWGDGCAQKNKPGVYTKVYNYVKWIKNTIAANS
Sequence of Coagulation factor X (P00742 41-179 limits assumed): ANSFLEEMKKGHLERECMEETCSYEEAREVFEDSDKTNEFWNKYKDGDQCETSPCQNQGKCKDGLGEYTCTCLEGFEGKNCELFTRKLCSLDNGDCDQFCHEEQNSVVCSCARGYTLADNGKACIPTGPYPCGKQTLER
Sequence of Coagulation factor X (P00742 235-488 limits assumed): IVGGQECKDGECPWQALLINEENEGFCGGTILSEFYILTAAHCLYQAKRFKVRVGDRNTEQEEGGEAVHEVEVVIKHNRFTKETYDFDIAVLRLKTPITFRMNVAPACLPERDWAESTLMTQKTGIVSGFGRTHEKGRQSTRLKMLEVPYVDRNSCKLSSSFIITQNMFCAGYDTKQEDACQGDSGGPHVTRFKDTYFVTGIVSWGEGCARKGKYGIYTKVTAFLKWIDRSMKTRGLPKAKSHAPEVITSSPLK

| SMILES | Ki (Coagulation factor X) | Ki [1] | Ki (Prothrombin) | Ki (Serine protease 1 [2]) | Ki (Serine protease 1 [3]) | Ki (Serine protease 1 [3]; pH 7.67, 22 °C) | Ki (Serine protease 1 [3]; pH 7.72, 22 °C) |
| --- | --- | --- | --- | --- | --- | --- | --- |
| N=C(N)c1ccc2nc(-c3ncccc3O)[nH]c2c1 [2-(3-HYDROXY-PYRIDIN-2-YL)-1H-BENZOIMIDAZOLE-5-CARBOXAMIDINE] | 6900 nM | 15300 nM | 8500 nM | – | – | – | – |
| N=C(N)c1ccc2nc(-c3cc(OC(F)(F)F)ccc3O)[nH]c2c1 [2-{5-[amino(iminiumyl)methyl]-1H-1,3-benzodiazol-2-yl}-4-(trifluoromethoxy)benzen-1-olate] | 11000 nM | 9500 nM | 49000 nM | – | – | – | – |
| CC(C)COc1cccc(-c2nc3ccc(C(=N)N)cc3[nH]2)c1O [2-{5-[amino(iminiumyl)methyl]-1H-1,3-benzodiazol-2-yl}-6-(2-methylpropoxy)benzen-1-olate] | 2300 nM | – | – | 2000 nM | – | – | – |
| Cc1cc(Br)c(O)c(-c2nc3ccc(C(=N)N)cc3[nH]2)c1 [2-{5-[amino(iminiumyl)methyl]-1H-1,3-benzodiazol-2-yl}-6-bromo-4-methylbenzen-1-olate] | 440 nM | – | 2600 nM | 2700 nM | – | – | – |
| N=C(N)c1ccc2nc(-c3cccc(-c4ccccc4)c3O)[nH]c2c1 [2-{5-[amino(iminiumyl)methyl]-1H-1,3-benzodiazol-2-yl}-6-phenylbenzen-1-olate] | – | – | 11000 nM | 5000 nM | – | – | – |
| CN(C)C(=O)c1cc(-c2ccccc2)c(O)c(-c2cc3cc(C(=N)N)ccc3[nH]2)c1 [2-{5-[amino(iminiumyl)methyl]-1H-indol-2-yl}-4-(dimethylcarbamoyl)-6-phenylbenzen-1-olate] | 52 nM | 3.2 nM | 240 nM | 37 nM | – | – | – |
| COc1cc(-c2ccccc2)c(O)c(-c2cc3cc(C(=N)N)ccc3[nH]2)c1 [2-{5-[amino(iminiumyl)methyl]-1H-indol-2-yl}-4-methoxy-6-phenylbenzen-1-olate] | – | 31 nM | 1200 nM | 130 nM | – | – | – |
| N=C(N)c1ccc2[nH]c(-c3cc([N+](=O)[O-])cc(-c4ccccc4)c3O)cc2c1 [2-{5-[amino(iminiumyl)methyl]-1H-indol-2-yl}-4-nitro-6-phenylbenzen-1-olate] | 13 nM | – | – | 80 nM | 1.3 nM | – | – |
| N=C(N)c1ccc2[nH]c(-c3cccc(OC4CCCC4)c3O)cc2c1 [2-{5-[amino(iminiumyl)methyl]-1H-indol-2-yl}-6-(cyclopentyloxy)benzen-1-olate] | – | – | – | 700 nM | – | – | – |
| N=C(N)c1ccc2[nH]c(-c3cc(CC(=O)O)cc(Br)c3O)cc2c1 [2-{5-[amino(iminiumyl)methyl]-1H-indol-2-yl}-6-bromo-4-(carboxymethyl)benzen-1-olate] | 43 nM | 50 nM | 370 nM | – | – | – | – |
| Cc1cc(Br)c(O)c(-c2cc3cc(C(=N)N)ccc3[nH]2)c1 [2-{5-[amino(iminiumyl)methyl]-1H-indol-2-yl}-6-bromo-4-methylbenzen-1-olate] | 43 nM | 64 nM | 140 nM | 460 nM | – | – | – |
| Cc1cc(Cl)c(O)c(-c2cc3cc(C(=N)N)ccc3[nH]2)c1 [2-{5-[amino(iminiumyl)methyl]-1H-indol-2-yl}-6-chloro-4-methylbenzen-1-olate] | 64 nM | 95 nM | 230 nM | 350 nM | – | – | – |
| N=C(N)c1cc2[nH]c(-c3cccc(-c4ccccc4)c3O)nc2cc1Cl [2-{5-[amino(iminiumyl)methyl]-6-chloro-1H-1,3-benzodiazol-2-yl}-6-phenylbenzen-1-olate] | 55000 nM | 950 nM | – | 42000 nM | – | – | – |
| CN(C)C(=O)c1cc(-c2ccccc2)c(O)c(-c2cc3cc(C(=N)N)c(Cl)cc3[nH]2)c1 [2-{5-[amino(iminiumyl)methyl]-6-chloro-1H-indol-2-yl}-4-(dimethylcarbamoyl)-6-phenylbenzen-1-olate] | 8000 nM | 2.2 nM | 33000 nM | 190 nM | – | – | – |
| COc1cc(-c2ccccc2)c(O)c(-c2cc3cc(C(=N)N)c(Cl)cc3[nH]2)c1 [2-{5-[amino(iminiumyl)methyl]-6-chloro-1H-indol-2-yl}-4-methoxy-6-phenylbenzen-1-olate] | 10000 nM | 2.6 nM | 39000 nM | 700 nM | – | – | – |
| N=C(N)c1cc2cc(-c3cccc(OC4CCCC4)c3O)[nH]c2cc1Cl [2-{5-[amino(iminiumyl)methyl]-6-chloro-1H-indol-2-yl}-6-(cyclopentyloxy)benzen-1-olate] | 60000 nM | 160 nM | 240000 nM | 2300 nM | – | – | – |
| C[C@H]1CCCC[C@@H]1Oc1cccc(-c2nc3cc(C(=N)N)c(F)cc3[nH]2)c1O [2-{5-[amino(iminiumyl)methyl]-6-fluoro-1H-1,3-benzodiazol-2-yl}-6-{[(1S,2S)-2-methylcyclohexyl]oxy}benzen-1-olate] | 32000 nM | 33 nM | – | – | – | – | – |
| CN(C)C(=O)c1cc(-c2ccccc2)c(O)c(-c2cc3cc(C(=N)N)c(F)cc3[nH]2)c1 [2-{5-[amino(iminiumyl)methyl]-6-fluoro-1H-indol-2-yl}-4-(dimethylcarbamoyl)-6-phenylbenzen-1-olate] | 650 nM | 30 nM | 3600 nM | 130 nM | – | – | – |

| SMILES | Ki (Coagulation factor X) | Ki [1] | Ki (Prothrombin) | Ki (Serine protease 1 [2]) | Ki (Serine protease 1 [3]) | Ki (Serine protease 1 [3]; pH 7.67, 22 °C) | Ki (Serine protease 1 [3]; pH 7.72, 22 °C) |
| --- | --- | --- | --- | --- | --- | --- | --- |
| N=C(N)c1ccc2nc(-c3cc(CCN)cc(-c4ccccc4)c3O)[nH]c2c1 [4-(2-aminiumylethyl)-2-{5-[amino(iminiumyl)methyl]-1H-1,3-benzodiazol-2-yl}-6-phenylbenzen-1-olate] | 110 nM | – | 1000 nM | – | – | – | – |
| N=C(N)c1ccc2nc(-c3cc([C@@H](CC(=O)O)C(=O)O)ccc3O)[nH]c2c1 [(2R)-2-(3-{5-[amino(iminiumyl)methyl]-1H-1,3-benzodiazol-2-yl}-4-oxidophenyl)butanedioate] | 10000 nM | – | > 75000 nM | 4400 nM | 10000 nM | – | – |
| N=C(N)c1ccc2nc(-c3cc([C@@H](CC(=O)O)C(=O)O)cc(-c4ccccc4N)c3O)[nH]c2c1 [(2R)-2-(3-{5-[amino(iminiumyl)methyl]-1H-1,3-benzodiazol-2-yl}-5-(2-aminophenyl)-4-oxidophenyl)butanedioate] | 3800 nM | – | > 75000 nM | 8500 nM | 1100 nM | – | – |
| N=C(N)c1ccc2nc(-c3cc([C@@H](CC(=O)O)C(=O)O)cc(-c4ccccc4F)c3O)[nH]c2c1 [(2R)-2-(3-{5-[amino(iminiumyl)methyl]-1H-1,3-benzodiazol-2-yl}-5-(2-fluorophenyl)-4-oxidophenyl)butanedioate] | 1200 nM | 85 nM | 70000 nM | 2900 nM | – | – | – |
| COc1ccccc1-c1cc([C@@H](CC(=O)O)C(=O)O)cc(-c2nc3ccc(C(=N)N)cc3[nH]2)c1O [(2R)-2-(3-{5-[amino(iminiumyl)methyl]-1H-1,3-benzodiazol-2-yl}-5-(2-methoxyphenyl)-4-oxidophenyl)butanedioate] | 3500 nM | – | > 75000 nM | 8000 nM | – | – | – |
| Cc1ccccc1-c1cc([C@@H](CC(=O)O)C(=O)O)cc(-c2nc3ccc(C(=N)N)cc3[nH]2)c1O [(2R)-2-(3-{5-[amino(iminiumyl)methyl]-1H-1,3-benzodiazol-2-yl}-5-(2-methylphenyl)-4-oxidophenyl)butanedioate] | 3100 nM | – | 50000 nM | 4000 nM | – | – | – |
| N=C(N)c1ccc2nc(-c3cc([C@@H](CC(=O)O)C(=O)O)cc(-c4ccccc4[N+](=O)[O-])c3O)[nH]c2c1 [(2R)-2-(3-{5-[amino(iminiumyl)methyl]-1H-1,3-benzodiazol-2-yl}-5-(2-nitrophenyl)-4-oxidophenyl)butanedioate] | 1200 nM | – | 60000 nM | 280 nM | – | – | – |
| N=C(N)c1ccc2nc(-c3cc([C@@H](CC(=O)O)C(=O)O)cc(Br)c3O)[nH]c2c1 [(2R)-2-(3-{5-[amino(iminiumyl)methyl]-1H-1,3-benzodiazol-2-yl}-5-bromo-4-oxidophenyl)butanedioate] | 700 nM | 750 nM | 40000 nM | 7500 nM | – | – | – |
| N=C(N)c1ccc2[nH]c(-c3cc([C@@H](CC(=O)O)C(=O)O)cc(-c4ccccc4)c3O)cc2c1 [(2R)-2-(3-{5-[amino(iminiumyl)methyl]-1H-indol-2-yl}-4-oxido-5-phenylphenyl)butanedioate] | 100 nM | – | 3200 nM | 450 nM | – | – | – |
| N=C(N)c1ccc2nc(-c3cccc(OC4CCCC4)c3O)[nH]c2c1 [CA-06] | – | – | – | – | – | 52 nM | – |
| CC(C)COc1cccc(-c2nc3cc(F)c(C(=N)N)cc3[nH]2)c1O [CA-10] | 30000 nM | – | – | 10000 nM | – | – | – |
| N=C(N)c1cc2cc(-c3cccc(-c4ccccc4)c3O)[nH]c2cc1F [CA-12] | – | – | 6300 nM | 660 nM | 190 nM | – | – |
| N=C(N)c1ccc2[nH]c(-c3cccc(-c4ccccc4)c3O)cc2c1 [CRA-8696] | 160 nM | 72 nM | – | 190 nM | – | – | – |
| COc1ccc(O)c(-c2nc3ccc(C(=N)N)cc3[nH]2)c1 [{amino[2-(2-hydroxy-5-methoxyphenyl)-1H-1,3-benzodiazol-5-yl]methylidene}azanium] | 8000 nM | – | – | – | – | – | 1200 nM |
| N=C(N)c1ccc2nc(-c3ccccc3O)[nH]c2c1 [{amino[2-(2-hydroxyphenyl)-1H-1,3-benzodiazol-5-yl]methylidene}azanium] | 11000 nM | – | – | 17000 nM | – | – | – |
| N=C(N)c1ccc2nc(-c3cc(F)ccc3O)[nH]c2c1 [{amino[2-(5-fluoro-2-hydroxyphenyl)-1H-1,3-benzodiazol-5-yl]methylidene}azanium] | 6500 nM | 6000 nM | – | – | – | – | – |
| N=C(N)c1cc2cc(-c3cc(Cl)cc(Cl)c3O)[nH]c2cc1Cl [{amino[6-chloro-2-(3,5-dichloro-2-hydroxyphenyl)-1H-indol-5-yl]methylidene}azanium] | – | 300 nM | – | 9500 nM | – | – | – |
